Test results reported in patent US4760077A, “Pyrrothine derivatives and pharmaceutical use thereof” (Boehringer Mannheim GmbH, priority 1984, dated 1988).
Counter-ions that a name gives are not always drawn. Like-named read-outs stand apart in the source and are kept apart here.

Columns and labels:
[1] = tested on: allergen-induced degranulation of peripheral leukocytes; experiment: Inhibition of the allergen-induced degranulation reaction of peripheral leukocytes (method of Siraganian and Hook); type: cell-based; details: Homo sapiens, Leukocyte
Experimental: For the detection of the anti-allergic action, there was measured the inhibition of the allergen-induced degranulation reaction of peripheral leukocytes; one operated according to the method of R. P. Siraganian and W. A. Hook (Manual of Clinical Immunology, 2nd edition 1980, pub. N. R. Rose and H. Friedman, Am. Soc. for Microbiology, pages 808 to 821).

[2] = tested on: gram-positive and gram-negative bacteria, pathogenic fungi and protozoa; details: Celmer and Solomons, J. Am. Chem. Soc. 77 (1955) 2861; cited from earlier work
mouse [3] = details: p.o., Table I, for the toxicity cf. literature named; cited from earlier work
mouse [4] = experiment: Toxicity LD50 p.o., mouse; type: in vivo; details: thiolutin vs theophylline
[5] = Table I, 50% inhibition in vitro, read-out: ID50 (the source's name)

Compound: CC(=O)NC1=C(S)C(=CS)N(C)C1=O [Example 3, 3-Acetamido-4-mercapto-5-mercaptomethylene-1-methylpyrrolin-2-one disodium salt]
- IC50 [1, 5]: 2.5 µM

Compound: CN(C)c1c2sscc-2n(C)c1=O [Example 4, N,N-Dimethylpyrrothine]
- IC50 [1, 5]: 4.6 µM

Compound: CN(C)C1=C(S)C(=CS)N(C)C1=O [Example 5, 3-Dimethylamino-4-mercapto-5-mercaptomethylene-1-methylpyrrolin-2-one disodium salt]
- IC50 ([1]; Examples 3 to 5, no unit printed at the value, read-out: ID50 (the source's name)): 50 µM
- IC50 [1, 5]: 5 µM

Compound: CCC(=O)Nc1c2sscc-2n(C)c1=O [aureothricin]
- IC50 ([1]; read-out: ID50 (the source's name)): 0.9 µM
- antibiotic action, in words [2]: action against gram-positive and gram-negative bacteria, pathogenic fungi and protozoa

Compound: CC(C)C(=O)Nc1c2sscc-2n(C)c1=O [isobutyrylpyrrothine]
- IC50 [1, 5]: 1.7 µM

Compound: Cn1c2cssc-2c(N)c1=O [pyrrothine, 4-methyl-6-amino-1,2-dithiolo[4,3-b]pyrrol-5(4H)-one]
- IC50 [1, 5]: 0.9 µM

Compound: Cn1c(=O)c2[nH]cnc2n(C)c1=O [theophylline, reference compound]
- IC50 [1, 5]: 5000 µM

Compound: CC(=O)Nc1c2sscc-2n(C)c1=O [thiolutin]
- LD50 (mouse [3]): 25 mg/kg
- factor of therapeutic index against comparison compound theophylline (mouse [4]): more than 10^4
- IC50 ([1]; read-out: ID50): 0.4 µM
- antibiotic action, in words [2]: action against gram-positive and gram-negative bacteria, pathogenic fungi and protozoa
